# Results published in US20230272221A1, “REAGENTS FOR LABELING BIOMOLECULES” (Ultima Genomics, Inc., priority 2020, published 2023).
# Columns and labels:
# [1] = enzyme-independent bead assay for evaluating quenching with linker arm oligonucleotides; type: physicochemical; conditions: APC (red) channel, FIG. 14
# Text: The dye-labeled nucleotides provided herein may improve quenching between nucleobases and the dyes to which they are attached and/or between dyes in a nucleic acid molecule (e.g., a growing nucleic acid strand), such as in a homopolymeric region of a nucleic acid molecule. Quenching may be evaluated in an enzyme-independent manner.
# Synthetic oligos are constructed with one or two “linker arm nucleotides”. Linker arm nucleotides are thymidine analogs with a linker arm containing a primary amine. The oligonucleotide containing the linker arm nucleotide can be labeled with linkers and dyes and HPLC purified. The advantage of using the bead-labeled assay is that exact quantitation of the reagents is not necessary; a large excess can be used in each step and the beads washed, ensuring that only stoichiometric amounts of oligonucleotides are bound to the template. Each dye-linker is put on both oligonucleotides. The beads are measured on the flow cytometer in the APC (red) channel. The percent quenching is determined by the formula: % quenching=100×(1−Flbis/(2*Flmono)).
# FIGS. 14 and 15 show quenching results for red dye linkers (FIG. 14) and green dye linkers (FIG. 15). […] The hyp10 or hyp20 linkers improve quenching.
# [2] = relative fluorescence of dyes coupled directly to oligos, double-stranded DNA bound to beads, flow cytometer; type: physicochemical; conditions: FIG. 26
# Method: Fluorescence was measured with double-stranded DNA bound to beads using a flow cytometer. […] Accordingly, green dyes may have an inherent advantage over red dyes. This difference may owe at least in part to Atto633 being hydrophobic while Atto532 is comparatively hydrophilic.
"quenching, red dye linkers [1]",brightness of two dyes relative to a single dye coupled to an oligo [2] [×],SMILES
hyp10 improves quenching,0.4,CC[N+]1=c2cc3c(cc2CCC1)=C(c1ccccc1C(=O)N(C)CCCC(=O)O)c1ccc(N(C)C)cc1C3(C)C [Atto633]
quenching may not be improved,–,CCN1/C(=C/C=C/C=C/C2=[N+](CCCCCC(=O)O)c3ccc(S(=O)(=O)O)cc3C2(C)C)C(C)(C)c2cc(S(=O)(=O)[O-])ccc21 [Cy5]
